Assay results: US7390806B2, “Antibiotics containing borinic acid complexes and methods of use” (Anacor Pharmaceuticals, Inc., priority 2002, dated 2008)
Converted amounts (≈) assume the structure as drawn.

Tests used:
M. tuberculosis P2SP1 = assay: Anti-mycobacterium in vitro activity, P2SP1; format: cell-based, Mycobacterium tuberculosis; details: Multi-drug resistant strain; for MIC: Mycobacterium tuberculosis, P2SP1
M. tuberculosis P1SP2 = assay: Anti-mycobacterium in vitro activity, P1SP2; format: cell-based, Mycobacterium tuberculosis; details: Multi-drug resistant strain; for MIC: Mycobacterium tuberculosis, P1SP2

Q: What does the source list for `Oc1cccc2cccnc12` [Compound 72, 8-hydroxyquinoline]?
A: M. tuberculosis MIC P2SP1 (M. tuberculosis P2SP1): 0.775 µg/mL; M. tuberculosis MIC P1SP2 (M. tuberculosis P1SP2): 0.775 µg/mL

Q: With `Oc1cccc2cccnc12` [Compound 50, 8-hydroxyquinoline] as the compound, how does the “M. tuberculosis MIC P2SP1” value (M. tuberculosis P2SP1) read?
A: Its value is 0.387 µg/mL.

Q: And the “M. tuberculosis MIC P1SP2” value (M. tuberculosis P1SP2)?
A: Its value is 0.387 µg/mL.

Q: `Oc1cccc2cccnc12` [Compound 53, 8-hydroxyquinoline] was tested. Which “M. tuberculosis MIC P2SP1” value (M. tuberculosis P2SP1) did it give?
A: The value was 0.775 µg/mL.

Q: And the “M. tuberculosis MIC P1SP2” value (M. tuberculosis P1SP2)?
A: Its value is 0.387 µg/mL.

Q: Which results are given for `Oc1cccc2cccnc12` [Compound 10, 8-hydroxyquinoline]?
A: M. tuberculosis MIC P2SP1 (M. tuberculosis P2SP1): 0.387 µg/mL; M. tuberculosis MIC P1SP2 (M. tuberculosis P1SP2): 0.387 µg/mL

Q: What does the source list for `Oc1cccc2cccnc12` [Compound 51, 8-hydroxyquinoline]?
A: M. tuberculosis MIC P2SP1 (M. tuberculosis P2SP1): 0.387 µg/mL; M. tuberculosis MIC P1SP2 (M. tuberculosis P1SP2): 0.387 µg/mL

Q: What does the source list for `N[C@@H]1CON=C1O` [cycloserine]?
A: MIC (M. tuberculosis P2SP1): 8 µg/mL (≈ 78.4 µM); MIC (M. tuberculosis P1SP2): 8 µg/mL (≈ 78.4 µM)

Q: `Oc1cccc2cccnc12` [Compound 55, 8-hydroxyquinoline] was tested. Which “M. tuberculosis MIC P2SP1” value (M. tuberculosis P2SP1) did it give?
A: Its value is 0.775 µg/mL.

Q: What about the “M. tuberculosis MIC P1SP2” value (M. tuberculosis P1SP2) of the same compound?
A: The value was 0.387 µg/mL.

Q: Which results are given for `Nc1ccc(C(=O)O)c(O)c1` [p-aminosalicylate]?
A: M. tuberculosis MIC P2SP1 (M. tuberculosis P2SP1): 32 µg/mL; M. tuberculosis MIC P1SP2 (M. tuberculosis P1SP2): 16 µg/mL

Q: `NC[C@H]1O[C@H](O[C@H]2[C@H](O)[C@@H](O[C@H]3O[C@H](CO)[C@@H](O)[C@H](N)[C@H]3O)[C@H](N)C[C@@H]2N)[C@H](O)[C@@H](O)[C@@H]1O` [Kanamycin] was tested. Which MIC (M. tuberculosis P2SP1) did it give?
A: The MIC was less than 2 µg/mL.

Q: What about the MIC (M. tuberculosis P1SP2) of the same compound?
A: Its MIC is less than 2 µg/mL.

Q: How did the MIC (M. tuberculosis P2SP1) turn out when `CCc1cc(C(N)=S)ccn1` [Ethionamide] was run?
A: Its MIC is greater than 64 µg/mL.

Q: What about the MIC (M. tuberculosis P1SP2) of the same compound?
A: Its MIC is 32 µg/mL (≈ 192 µM).

Q: With `Oc1cccc2cccnc12` [Compound 75, 8-hydroxyquinoline] as the compound, how does the “M. tuberculosis MIC P2SP1” value (M. tuberculosis P2SP1) read?
A: The value was 0.775 µg/mL.

Q: What about the “M. tuberculosis MIC P1SP2” value (M. tuberculosis P1SP2) of the same compound?
A: Its value is 0.775 µg/mL.

Q: `CC1COc2c(N3CCN(C)CC3)c(F)cc3c(=O)c(C(=O)O)cn1c23` (stereo not shown) [Ofloxacin] was tested. Which MIC (M. tuberculosis P2SP1) did it give?
A: The MIC was 32 µg/mL (≈ 88.6 µM).

Q: And the MIC (M. tuberculosis P1SP2)?
A: The MIC was 16 µg/mL (≈ 44.3 µM).

Q: `CC[C@@H](CO)NCCN[C@@H](CC)CO` [Ethambutol] was tested. Which MIC (M. tuberculosis P2SP1) did it give?
A: The MIC was 8 µg/mL (≈ 39.2 µM).

Q: And the MIC (M. tuberculosis P1SP2)?
A: The MIC was 8 µg/mL (≈ 39.2 µM).

Q: Which MIC (M. tuberculosis P2SP1) does the source give for `[H]/N=C(/N)N[C@H]1[C@H](O)[C@@H](O)[C@H](O[C@@H]2O[C@@H](C)[C@](O)(C=O)[C@H]2O[C@@H]2O[C@@H](CO)[C@H](O)[C@@H](O)[C@@H]2NC)[C@@H](N/C(N)=N\[H])[C@@H]1O` [Streptomycin] here?
A: Its MIC is less than 2 µg/mL.

Q: What about the MIC (M. tuberculosis P1SP2) of the same compound?
A: Its MIC is less than 2 µg/mL.

Q: How did the MIC (M. tuberculosis P2SP1) turn out when `NNC(=O)c1ccncc1` [Isoniazid (INH), Isoniazid] was run?
A: The MIC was greater than 8 µg/mL.

Q: And the MIC (M. tuberculosis P1SP2)?
A: Its MIC is greater than 8 µg/mL.

Q: For `Oc1cccc2cccnc12` [Compound 65, 8-hydroxyquinoline], which “M. tuberculosis MIC P2SP1” value (M. tuberculosis P2SP1) is on record?
A: Its value is 0.775 µg/mL.

Q: What about the “M. tuberculosis MIC P1SP2” value (M. tuberculosis P1SP2) of the same compound?
A: The value was 0.775 µg/mL.

Q: Which MIC (M. tuberculosis P2SP1) does the source give for `CO[C@H]1/C=C/O[C@@]2(C)Oc3c(C)c(O)c4c(O)c(c(/C=N/N5CCN(C)CC5)c(O)c4c3C2=O)NC(=O)/C(C)=C\C=C\[C@H](C)[C@H](O)[C@@H](C)[C@@H](O)[C@@H](C)[C@H](OC(C)=O)[C@@H]1C` [Rifampicin] here?
A: The MIC was 16 µg/mL (≈ 19.4 µM).

Q: And the MIC (M. tuberculosis P1SP2)?
A: Its MIC is greater than 16 µg/mL.
